Assay [1] has as its system GPR35. Kind of assay: GPR35 western blots, spinal cord. The format is in vivo, mice. Particulars: non-lumbar region of the spinal cord; TgSOD1-Cromolyn vs TgSOD1-Vehicle; p=0.167. On the procedure: Western blots were performed as previously described (Mueller et al., 2018). Briefly, […] of mouse spinal cord protein was re-suspended in sample buffer, boiled at 95° C. for 5 minutes, and fractioned on 10-20% Tricine gels (Life Technologies), and the membrane was then blocked with 5% milk in tris-buffered saline with Tween 20 (TBST) before immunodetection with antibodies specific for the following: GPR35 (Novus Biologicals, Littleton, Colo.; NBP2-24640), and beta-actin (Cell Signaling Technology, Danvers, Mass.; 4967S). Primary antibody incubation overnight was followed by 4 washes (15 min, RT) in TBST before incubation with the secondary antibody for 1 h (HRP-conjugated goat anti-rabbit IgG Jackson ImmunoResearch Laboratories, West Grove, Pa.; and HRP-conjugated goat anti-mouse Bio-Rad Laboratories Hercules, Calif.). After 4 washes in TBST (15 min, RT) proteins were visualized using the ECL detection system (NEN, Boston, Mass.). GPR35 integrated density values (IDV) were normalized to beta-actin.
(§1) 149 male and female age- and litter-matched transgenic (Tg) SOD1^G93A and wild-type (Wt) SOD1^G93A mice were used with the following breakdown: Females (19 WtSOD1-Vehicle, 17 WtSOD1-Cromolyn, 19 TgSOD1-Vehicle, and 17 TgSOD1-Cromolyn) and Males (18 WtSOD1-Vehicle, 21 WtSOD1-Cromolyn, 21 TgSOD1-Vehicle, 17 TgSOD1-Cromolyn).

Assay [2] has as its target alpha-synuclein peptides (Homo sapiens, UniProt P37840). Particulars: cited from earlier work.
The test system of assay [3] is SOD1 gene. The settings on record: in vitro studies; cited from earlier work.
Assay [4] relates to SOD1^G93A mouse model. Nature of the assay: Paw Grip Endurance Test (PaGE). The settings on record: TgSOD1-Cromolyn vs TgSOD1-Vehicle. The format is in vivo, mice. On the procedure:
The PaGE test was performed as previously described. Briefly, mice were placed on the wire lid of a conventional housing cage that was inverted and held at ˜45 cm above an open cage bottom. […] The largest value from three individual trials was used for analysis.
as §1

The test system of assay [5] is SOD1^G93A mouse model. Nature of the assay: Neurological scoring (ALS TDI criteria). The settings on record: 6.3 mg/kg i.p. Type of assay: in vivo, mice. As for the experimental part: Beginning at P50, weight and neurological score (using the ALS TDI criteria) (Hatzipetros, T., et al. (2015). “A Quick Phenotypic Neurological Scoring System for Evaluating Disease Progression in the SOD1-G93A Mouse Model of ALS.” J Vis Exp(104); Leitner M., et. al. (2009). “Working with ALS mice: Guidelines for preclinical testing & colony management.” The Jackson Laboratory) were recorded for each mouse every 5 days until death or euthanasia. ALS TDI criteria are as follows: • Score of 0: Full extension of hind legs away from lateral midline when mouse is suspended by its tail, and mouse can hold this for two seconds, suspended two to three times. • Score of 1: Collapse or partial collapse of leg extension towards lateral midline (weakness) or trembling of hind legs during tail suspension. • Score of 2: Toes curl under at least twice during walking of 12 inches, or any part of foot is dragging along cage bottom/table. • Score of 3: Rigid paralysis or minimal joint movement, foot not being used for generating forward motion. • Score of 4: Mouse cannot right itself within 15 seconds after being placed on either side. *Mice were euthanized upon obtaining a score of 4.
as §1

The subject of assay [6] is pro-inflammatory cytokines and chemokines in spinal cord. Kind of assay: Meso Scale Discovery multi-spot cytokine assay, spinal cord. The settings on record: TgSOD1-Cromolyn vs TgSOD1-Vehicle; p=0.0273. Type of assay: in vivo, mice. On the procedure: Spinal cord frozen tissue was homogenized in ice-cold RIPA buffer (Thermo Fisher Scientific, #8990) supplemented with protease inhibitor cocktail (Thermo Fisher Scientific, #78430). Samples were centrifuged at 45,000 g for 30 minutes at 4° C. using an Optima TL ultracentrifuge and a TLA 120.2 rotor (Beckman Coulter). Expression levels of 10 pro-inflammatory cytokines and chemokines were assessed in the supernatants derived from spinal cord tissue or in the plasma, using an electrochemiluminescence-based multi-array method and MESO Quickplex SQ 120 system (MSD, Rockville, Md., USA). The 96-well V-PLEX Proinflammatory Mouse 1 Kit (Meso Scale Discovery, #K15048D) was used to measure simultaneously IFN-γ, IL-1β, IL-2, IL-4, IL-5, IL-6, CXCL1/KC/GRO, IL-10, IL-12, p70, and TNFα, following the manufacturer's instructions. Briefly, samples were diluted in the calibrator and added to the plate coated with an array of cytokine capture antibodies. […] The plate was washed with the wash buffer and the 2× Read Buffer T was added. The signal was immediately measured on a MESO QuickPlex SQ 120 instrument and was analyzed using the DISCOVERY WORKBENCH 4.0 software (Meso Scale Diagnostics, LLC., Rockville, Md., USA). Protein concentrations in the supernatants or the plasma samples were measured using the Pierce BCA protein assay kit (Thermo Scientific). […]

In assay [7] the test system is SOD1^G93A mouse model. Nature of the assay: Gait analysis (stride length and width). Type of assay: in vivo, mice. Particulars: 6.3 mg/kg i.p. On the procedure: Gait Analysis Manual gait analysis was performed using a limb painting procedure similar to previous studies. Briefly, mice were first trained to traverse a horizontal corridor leading directly into their home cage by gentle nudges in the appropriate direction. On test days the bottoms of their hindlimbs were painted, by brushing with non-toxic food dye (Fisher Scientific), and the mice were allowed to walk the path to their home cage on a piece of paper. Three trials were performed at each experimental time point (P70, P90, P110, P130, P150). Stride length and width was determined by measuring the distance between the same points, on the ball mount region of the footprint, in two consecutive footprints and calculated from 2-3 hindpaw strides. Mean data from 4-6 strides across three trials was calculated.
as §1

For assay [8], the target named is beta-amyloid peptides (Homo sapiens, UniProt P05067). Particulars: cited from earlier work.
Sequence of beta-amyloid peptides (P05067 672-713 limits assumed): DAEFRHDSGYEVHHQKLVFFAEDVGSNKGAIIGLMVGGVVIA
Assay [9] deals with G-protein-coupled receptor 35 (GPR35) (Homo sapiens, UniProt Q9HC97). Particulars: cited from earlier work.
Sequence of G-protein-coupled receptor 35 (GPR35) (Q9HC97 whole entry, species assumed): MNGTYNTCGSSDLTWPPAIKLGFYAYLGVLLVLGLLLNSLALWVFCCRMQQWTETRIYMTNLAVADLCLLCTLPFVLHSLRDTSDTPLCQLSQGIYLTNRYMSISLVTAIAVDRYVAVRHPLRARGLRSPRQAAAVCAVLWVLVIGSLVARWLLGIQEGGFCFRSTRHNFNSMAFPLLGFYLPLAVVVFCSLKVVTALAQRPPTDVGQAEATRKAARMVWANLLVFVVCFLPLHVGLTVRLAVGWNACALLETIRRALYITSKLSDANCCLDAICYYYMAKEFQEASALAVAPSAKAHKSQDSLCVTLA

Consider `O=C(O)c1cc(=O)c2c(OCC(O)COc3cccc4oc(C(=O)O)cc(=O)c34)cccc2o1` [cromolyn, cromolyn sodium], for which, in assay [1], the “GPR35 levels (western blot, normalized to beta-actin)” value is “trend towards an increase”. Also, the “binding to alpha-synuclein peptides and polymerization” value in assay [2] is reported as “inhibiting their polymerization to higher order aggregates”. The “effect on SOD1 gene” value in [3] is “inhibits the SOD1 gene”. Moreover, the PaGE performance entry in [4] (6.3 mg/kg i.p., all mice, P120 and P140) is “significant improvement in PaGE performance”; in assay [4] (female mice, P100), “greater deficits in PaGE performance”; in assay [4] (female mice, P140) it was “significant improvement”; in assay [4] (male mice, P120), “significant improvement in PaGE”. In addition, the neurological score result in assay [5] (TgSOD1-Cromolyn vs TgSOD1-Vehicle, all mice, P90, P100, P110, P130, P140) is “significantly delayed disease onset and progression”; in assay [5] (female mice, P90, P100, P120, P130, P140), “significant increase in neurological score in the female TgSOD1-Vehicle treated group compared to TgSOD1-Cromolyn group”; in [5] (male mice, P90, P100, P110) it was “significant increase in neurological score in male TgSOD1-Vehicle treated group compared to TgSOD1-Cromolyn group”. Besides, in [6], the “CXCL1 levels in spinal cord” value is recorded as “significant decrease”. The “TNFα levels in spinal cord” value in assay [6] is listed as “significant decrease”. In [7] (TgSOD1 mice), the stride length result is “no effect on stride length”. For the same compound, the stride width entry in assay [7] (all groups, two-way ANOVA) is “no effect of treatment”. Also, the “binding to beta-amyloid peptides and polymerization” value in [8] is “inhibiting their polymerization to higher order aggregates”. Also, the “agonism of GPR35” value in assay [9] was “potent agonist”.
